Patent US8410145B2, “Insecticidal compounds” (Syngenta Crop Protection LLC, priority 2007, dated 2013)

Tests used:
Assay type in all cases: in vivo
[1] = test system: Tetranychus urticae (Two-Spotted Spider Mite); assay: Tetranychus urticae bean leaf disc spray test; conditions: foliar, 192 h, 200 ppm spray on bean leaf discs, mite populations of mixed ages, egg, larval and adult mortality 8 days later
Excerpt: (§1) Cotton leaf discs were placed on agar in a 24-well microtiter plate and sprayed with test solutions at an application rate of 200 ppm. After drying, the leaf discs were infested with 5 to L1 larvae. The samples were checked for mortality, feeding behavior, and growth regulation 3 days after treatment (DAT). The following compounds gave at least 80% control of Spodoptera littoralis: A1, A2, A3, A4, A6, A9, A10, A11, A12, A13, A14, A15, A16, A19, A20, A22, A23, A25, A26, A27, B1, B2, B3, B5, B6, B7, B8, B9, B11, B12, B13, B15, B16, B18, B19, B20, B21, B22, B24, B26, B27, B28, C1, C2, C3, C4, C5, C6, C7, C8, C9, C10, C12, C13, C16, C19, C20, C21, C22, C23, D1, D2, D3, D4, D5, D6, D7, D8, D9, D10, D11, D12, D13, D14, D15, D16, D17, D18, D19, D20, D21, D22, D23, D24. Heliothis virescens (Tobacco Budworm): Eggs (0-24 h old) were placed in 24-well microtiter plate on artificial diet and treated with test solutions at an application rate of 200 ppm (concentration in well 18 ppm) by pipetting. After an incubation period of 4 days, samples were checked for egg mortality, larval mortality, and growth regulation. The following compounds gave at least 80% control of Heliothis virescens: A1, A2, A3, A4, A13, A15, A17, A19, A20, A22, A23, A25, A26, A28, B1, B2, B3, B5, B6, B7, B9, B11, B13, B15, B18, B19, B20, B21, B25, B26, B27, B28, C1, C2, C3, C4, C5, C6, C7, C8, C9, C10, C12, C14, C16, C17, C19, C20, C21, C22, D1, D2, D3, D4, D5, D6, D7, D8, D9, D10, D11, D12, D13, D14, D15, D16, D17, D18, D19, D20, D21, D22, D23, E1, E2, E3, E4, E5. Plutella xylostella (Diamond Back Moth): 24-well microtiter plate (MTP) with artificial diet was treated with test solutions at an application rate of 200 ppm (concentration in well 18 ppm) by pipetting. After drying, the MTP's were infested with L2 larvae (7-12 per well). After an incubation period of 6 days, samples were checked for larval mortality and growth regulation. The following compounds gave at least 80% control of Plutella xylostella: A1, A3, A4, A10, All, A15, A19, A23, A25, B1, B2, B3, B5, B6, B7, B8, B9, B11, B13, B15, B18, B19, B20, B21, B26, B27, B28, C1, C2, C3, C4, C6, C7, C8, C9, C12, C16, C19, C20, C22, D1, D2, D3, D4, D5, D6, D7, D8, D9, D10, D12, D13, D14, D15, D16, D17, D18, D19, D20, D21, D22, D23, E1, E3, E5. Diabrotica balteata (Corn Root Worm): A 24-well microtiter plate (MTP) with artificial diet was treated with test solutions at an application rate of 200 ppm (concentration in well 18 ppm) by pipetting. After drying, the MTP's were infested with L2 larvae (6-10 per well). After an incubation period of 5 days, samples were checked for larval mortality and growth regulation. The following compounds gave at least 80% control of Diabrotica balteata: A2, A3, A4, A9, A11, A12, A13, A14, A15, A17, A19, A21, A22, A23, A24, A25, A26, B1, B2, B3, B6, B7, B8, B11, B13, B14, B15, B18, B19, B20, B21, B22, B26, B28, C1, C2, C3, C4, C5, C6, C7, C8, C9, C10, C12, C14, C15, C16, C19, C20, C21, C22, C23, C26, D1, D2, D4, D5, D6, D7, D8, D9, D10, D12, D14, D15, D16, D17, D18, D19, D20, D21, D22, D23, E2, E3, E5. Thrips tabaci (Onion Thrips): Sunflower leaf discs were placed on agar in a 24-well microtiter plate and sprayed with test solutions at an application rate of 200 ppm. After drying, the leaf discs were infested with an […] population of mixed ages. After an incubation period of 7 days, samples were checked for mortality. The following compounds gave at least 80% control of Thrips tabaci: B1, B7, B11, B15, B18, B19, B28, D1, D2, D3, D4, D5, D6, D7, D8, D9, D10, D12, D16, D18, D19, D20, D21, D23. Tetranychus urticae (Two-Spotted Spider Mite): Bean leaf discs on agar in 24-well microtiter plates were sprayed with test solutions at an application rate of 200 ppm. After drying, the leaf discs are infested with mite populations of mixed ages. 8 days later, discs are checked for egg mortality, larval mortality, and adult mortality. […]

[2] = test system: Spodoptera littoralis (Egyptian Cotton Leafworm); assay: Spodoptera littoralis cotton leaf disc spray test; conditions: foliar, 72 h, 200 ppm spray on cotton leaf discs, L1 larvae, mortality, feeding behavior, growth regulation 3 DAT
Excerpt: as §1

[3] = test system: Diabrotica balteata (Corn Root Worm); assay: Diabrotica balteata larvae test on artificial diet; conditions: 120 h, 200 ppm (concentration in well 18 ppm), L2 larvae, larval mortality and growth regulation after 5 days
Excerpt: as §1

[4] = test system: Thrips tabaci (Onion Thrips); assay: Thrips tabaci sunflower leaf disc spray test; conditions: foliar, 168 h, 200 ppm spray on sunflower leaf discs, population of mixed ages, mortality after 7 days
Excerpt: as §1

[5] = test system: Plutella xylostella (Diamond Back Moth); assay: Plutella xylostella larvae test on artificial diet; conditions: 144 h, 200 ppm (concentration in well 18 ppm), L2 larvae, larval mortality and growth regulation after 6 days
Excerpt: as §1

[6] = test system: Heliothis virescens (Tobacco Budworm); assay: Heliothis virescens egg test on artificial diet; conditions: 96 h, 200 ppm (concentration in well 18 ppm), eggs 0-24 h old on artificial diet, egg mortality, larval mortality, growth regulation after 4 days
Excerpt: as §1

[7] = test system: Spodoptera littoralis, Heliothis virescens, Plutella xylostella, Diabrotica balteata, Thrips tabaci, Tetranychus urticae; assay: Pesticidal tests, same protocols (all six pests taken together); conditions: same protocols as b207 (200 ppm), under the test conditions
Excerpt: as §1

N#Cc1ccc(C2=NOC(c3cc(Cl)cc(Cl)c3)(C(F)(F)F)C2)cc1NC(=O)c1ccc(F)cc1 (stereo not shown) [D18]
pest or weed control at 200 ppm [1]: ≥ 80% | pest or weed control at 200 ppm [2]: ≥ 80% | pest or weed control at 200 ppm [3]: ≥ 80% | pest or weed control at 200 ppm [4]: ≥ 80% | pest or weed control at 200 ppm [5]: ≥ 80% | pest or weed control at 200 ppm [6]: ≥ 80%

N#Cc1ccc(C(=O)Nc2cccc(C3=NOC(c4cc(Cl)cc(Cl)c4)(C(F)(F)F)C3)c2)cc1 (stereo not shown) [A4, 4-cyano-N-{3-[5-(3,5-dichloro-phenyl)-5-trifluoromethyl-4,5-dihydro-isoxazol-3-yl]phenyl}-benzamide]
pest or weed control at 200 ppm [1]: ≥ 80% | pest or weed control at 200 ppm [2]: ≥ 80% | pest or weed control at 200 ppm [3]: ≥ 80% | pest or weed control at 200 ppm [5]: ≥ 80% | pest or weed control at 200 ppm [6]: ≥ 80%

Cc1ccc(C(=O)Nc2cc(C3=NOC(c4cc(Cl)cc(Cl)c4)(C(F)(F)F)C3)ccc2C#N)cc1 (stereo not shown) [D9]
pest or weed control at 200 ppm [1]: ≥ 80% | pest or weed control at 200 ppm [2]: ≥ 80% | pest or weed control at 200 ppm [3]: ≥ 80% | pest or weed control at 200 ppm [4]: ≥ 80% | pest or weed control at 200 ppm [5]: ≥ 80% | pest or weed control at 200 ppm [6]: ≥ 80%

N#Cc1ccc(C2=NOC(c3cc(Cl)cc(Cl)c3)(C(F)(F)F)C2)cc1NC(=O)c1ccccc1 (stereo not shown) [D2]
pest or weed control at 200 ppm [1]: ≥ 80% | pest or weed control at 200 ppm [2]: ≥ 80% | pest or weed control at 200 ppm [3]: ≥ 80% | pest or weed control at 200 ppm [4]: ≥ 80% | pest or weed control at 200 ppm [5]: ≥ 80% | pest or weed control at 200 ppm [6]: ≥ 80%

N#Cc1ccc(C2=NOC(c3cc(Cl)cc(Cl)c3)(C(F)(F)F)C2)cc1NC(=O)c1ccc([N+](=O)[O-])cc1 (stereo not shown) [D8]
pest or weed control at 200 ppm [1]: ≥ 80% | pest or weed control at 200 ppm [2]: ≥ 80% | pest or weed control at 200 ppm [3]: ≥ 80% | pest or weed control at 200 ppm [4]: ≥ 80% | pest or weed control at 200 ppm [5]: ≥ 80% | pest or weed control at 200 ppm [6]: ≥ 80%

O=C(Cc1ccc(Cl)cc1)Nc1cccc(C2=NOC(c3cc(Cl)cc(Cl)c3)(C(F)(F)F)C2)c1 (stereo not shown) [A5]
effect on mortality, feeding behavior, or growth regulation [7]: little or no effect

COc1ccccc1C(=O)Nc1cc(C2=NOC(c3cc(Cl)cc(Cl)c3)(C(F)(F)F)C2)ccc1F (stereo not shown) [C18]
effect on mortality, feeding behavior, or growth regulation [7]: little or no effect

N#Cc1ccc(C(=O)Nc2cc(C3=NOC(c4cc(Cl)cc(Cl)c4)(C(F)(F)F)C3)ccc2C#N)cc1 (stereo not shown) [D1]
pest or weed control at 200 ppm [1]: ≥ 80% | pest or weed control at 200 ppm [2]: ≥ 80% | pest or weed control at 200 ppm [3]: ≥ 80% | pest or weed control at 200 ppm [4]: ≥ 80% | pest or weed control at 200 ppm [5]: ≥ 80% | pest or weed control at 200 ppm [6]: ≥ 80%

N#Cc1ccc(C2=NOC(c3cc(Cl)cc(Cl)c3)(C(F)(F)F)C2)cc1NC(=O)c1ccccc1Cl (stereo not shown) [D7]
pest or weed control at 200 ppm [1]: ≥ 80% | pest or weed control at 200 ppm [2]: ≥ 80% | pest or weed control at 200 ppm [3]: ≥ 80% | pest or weed control at 200 ppm [4]: ≥ 80% | pest or weed control at 200 ppm [5]: ≥ 80% | pest or weed control at 200 ppm [6]: ≥ 80%

O=C(Nc1cc(C2=NOC(c3cc(Cl)cc(Cl)c3)(C(F)(F)F)C2)ccc1F)c1ccc(F)cc1F (stereo not shown) [C24]
effect on mortality, feeding behavior, or growth regulation [7]: little or no effect

O=C(Nc1cccc(C2=NOC(c3cc(Cl)cc(Cl)c3)(C(F)(F)F)C2)c1F)c1ccc(F)cc1 (stereo not shown) [B17]
effect on mortality, feeding behavior, or growth regulation [7]: little or no effect

O=C(Nc1cccc(C2=NOC(c3cc(Cl)cc(Cl)c3)(C(F)(F)F)C2)c1F)c1ccco1 (stereo not shown) [B10]
effect on mortality, feeding behavior, or growth regulation [7]: little or no effect

COc1ccccc1C(=O)Nc1cccc(C2=NOC(c3cc(Cl)cc(Cl)c3)(C(F)(F)F)C2)c1F (stereo not shown) [B15]
pest or weed control at 200 ppm [2]: ≥ 80% | pest or weed control at 200 ppm [3]: ≥ 80% | pest or weed control at 200 ppm [4]: ≥ 80% | pest or weed control at 200 ppm [5]: ≥ 80% | pest or weed control at 200 ppm [6]: ≥ 80%

O=C(CBr)Nc1cccc(C2=NOC(c3cc(Cl)cc(Cl)c3)(C(F)(F)F)C2)c1 (stereo not shown) [A8]
effect on mortality, feeding behavior, or growth regulation [7]: little or no effect

Cc1ccc(C(=O)Nc2cc(C3=NOC(c4cc(Cl)cc(Cl)c4)(C(F)(F)F)C3)ccc2F)cc1 (stereo not shown) [C9]
pest or weed control at 200 ppm [1]: ≥ 80% | pest or weed control at 200 ppm [2]: ≥ 80% | pest or weed control at 200 ppm [3]: ≥ 80% | pest or weed control at 200 ppm [5]: ≥ 80% | pest or weed control at 200 ppm [6]: ≥ 80%

N#Cc1ccc(C2=NOC(c3cc(Cl)cc(Cl)c3)(C(F)(F)F)C2)cc1NC(=O)c1ccccc1F (stereo not shown) [D5]
pest or weed control at 200 ppm [2]: ≥ 80% | pest or weed control at 200 ppm [3]: ≥ 80% | pest or weed control at 200 ppm [4]: ≥ 80% | pest or weed control at 200 ppm [5]: ≥ 80% | pest or weed control at 200 ppm [6]: ≥ 80%

O=C(Nc1cccc(C2=NOC(c3cc(Cl)cc(Cl)c3)(C(F)(F)F)C2)c1F)c1ccc([N+](=O)[O-])cc1 (stereo not shown) [B5]
pest or weed control at 200 ppm [1]: ≥ 80% | pest or weed control at 200 ppm [2]: ≥ 80% | pest or weed control at 200 ppm [5]: ≥ 80% | pest or weed control at 200 ppm [6]: ≥ 80%

O=C(Nc1cccc(C2=NOC(c3cc(Cl)cc(Cl)c3)(C(F)(F)F)C2)c1F)c1ccccc1F (stereo not shown) [B1]
pest or weed control at 200 ppm [2]: ≥ 80% | pest or weed control at 200 ppm [3]: ≥ 80% | pest or weed control at 200 ppm [4]: ≥ 80% | pest or weed control at 200 ppm [5]: ≥ 80% | pest or weed control at 200 ppm [6]: ≥ 80%

N#Cc1ccc(C2=NOC(c3cc(Cl)cc(Cl)c3)(C(F)(F)F)C2)cc1NC(=O)c1ccc(F)cc1F (stereo not shown) [D23]
pest or weed control at 200 ppm [2]: ≥ 80% | pest or weed control at 200 ppm [3]: ≥ 80% | pest or weed control at 200 ppm [4]: ≥ 80% | pest or weed control at 200 ppm [5]: ≥ 80% | pest or weed control at 200 ppm [6]: ≥ 80%

Cc1ccccc1C(=O)Nc1cc(C2=NOC(c3cc(Cl)cc(Cl)c3)(C(F)(F)F)C2)ccc1C#N (stereo not shown) [D6]
pest or weed control at 200 ppm [1]: ≥ 80% | pest or weed control at 200 ppm [2]: ≥ 80% | pest or weed control at 200 ppm [3]: ≥ 80% | pest or weed control at 200 ppm [4]: ≥ 80% | pest or weed control at 200 ppm [5]: ≥ 80% | pest or weed control at 200 ppm [6]: ≥ 80%
